Source: the NIST ThermoML archive (doi:10.1016/j.jct.2018.12.006)

Conditions: 101.33 kPa, Crystal; for molar entropy: Small (less than 1 g) adiabatic calorimetry; for mass density: X-ray diffraction

C[N+](C)(C)C[C@H](O)CC(=O)[O-] [(R)-3-hydroxy-4-(trimethylammonio)butanoate]
Conditions	mass density [kg/m3]	molar entropy [J/K/mol]
5 K	–	0.0967
10 K	–	0.77
15 K	–	2.46
20 K	–	5.34
25 K	–	8.973
30 K	–	13
35 K	–	17.28
40 K	–	21.73
45 K	–	26.33
50 K	–	31.04
60 K	–	40.65
70 K	–	50.3
80 K	–	59.86
90 K	–	69.27
100 K	–	78.52
110 K	–	87.63
120 K	–	96.63
130 K	–	105.5
140 K	–	114.3
150 K	1256	122.9
160 K	–	131.4
170 K	–	139.9
175 K	1250	–
180 K	–	148.2
190 K	–	156.4
200 K	1253	164.5
210 K	–	172.5
220 K	–	180.3
225 K	1247	–
230 K	–	188.1
240 K	–	195.9
250 K	1247	203.6
260 K	–	211.2
270 K	–	218.8
273.15 K	–	221.2
275 K	1250	–
280 K	–	226.4
290 K	–	233.9
298.15 K	–	240.1
300 K	1245	241.5
310 K	–	249
320 K	–	256.5
325 K	1236	–
330 K	–	264
340 K	–	271.5
350 K	1239	279
375 K	1242	–
400 K	1236	–
425 K	1236	–
